Read-outs that look alike come from different tables or passages of the source.
Assays:
[1] = biological target: Adrenergic Receptor α1A (ADRA1A) (Homo sapiens, UniProt P35348); test: SAFETYscan ADRA1A Calcium Flux; type: cell-based; conditions: 10 μM HU-MCA-13, read-out: Maximal Response
[2] = biological target: T1, Adrenergic Receptor α2A (ADRA2A) (Homo sapiens, UniProt P08913); test: SAFETYscan ADRA2A cAMP; type: cell-based; conditions: 10 μM HU-MCA-13
T1 sequence (P08913 1-465): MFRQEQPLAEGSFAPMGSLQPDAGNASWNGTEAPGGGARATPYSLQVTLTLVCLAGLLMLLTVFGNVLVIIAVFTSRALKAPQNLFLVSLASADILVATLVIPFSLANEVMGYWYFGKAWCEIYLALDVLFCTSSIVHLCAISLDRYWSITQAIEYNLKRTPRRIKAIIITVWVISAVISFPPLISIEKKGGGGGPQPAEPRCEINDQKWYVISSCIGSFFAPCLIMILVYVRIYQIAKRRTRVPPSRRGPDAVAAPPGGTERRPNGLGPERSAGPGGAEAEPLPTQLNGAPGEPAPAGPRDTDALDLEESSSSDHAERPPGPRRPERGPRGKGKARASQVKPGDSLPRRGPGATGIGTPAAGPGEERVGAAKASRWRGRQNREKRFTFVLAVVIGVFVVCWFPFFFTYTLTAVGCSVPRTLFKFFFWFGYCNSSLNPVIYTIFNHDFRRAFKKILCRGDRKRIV

[3] = biological target: Cholecystokinin Receptor A (CCKAR) (Homo sapiens, UniProt P32238); test: SAFETYscan CCKAR Calcium Flux; type: cell-based; conditions: 10 μM HU-MCA-13, read-out: Maximal Response
Sequence of Cholecystokinin Receptor A (CCKAR) (P32238 whole entry): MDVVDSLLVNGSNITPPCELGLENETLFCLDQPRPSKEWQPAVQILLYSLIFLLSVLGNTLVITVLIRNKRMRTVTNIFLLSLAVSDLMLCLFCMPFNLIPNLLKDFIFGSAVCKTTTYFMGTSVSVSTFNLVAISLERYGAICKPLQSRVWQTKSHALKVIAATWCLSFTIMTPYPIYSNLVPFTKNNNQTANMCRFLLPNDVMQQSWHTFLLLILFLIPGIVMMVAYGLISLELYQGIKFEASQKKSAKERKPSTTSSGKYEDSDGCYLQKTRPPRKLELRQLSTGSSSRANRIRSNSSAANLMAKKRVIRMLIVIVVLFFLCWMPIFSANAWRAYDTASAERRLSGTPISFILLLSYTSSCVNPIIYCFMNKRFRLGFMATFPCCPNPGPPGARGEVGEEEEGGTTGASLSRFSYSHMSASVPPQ

[4] = biological target: Muscarinic acetylcholine Receptor M1 (CHRM1) (Homo sapiens, UniProt P11229); test: cell-based; conditions: 10 μM HU-MCA-13, read-out: Maximal Response
Sequence of Muscarinic acetylcholine Receptor M1 (CHRM1) (P11229 whole entry): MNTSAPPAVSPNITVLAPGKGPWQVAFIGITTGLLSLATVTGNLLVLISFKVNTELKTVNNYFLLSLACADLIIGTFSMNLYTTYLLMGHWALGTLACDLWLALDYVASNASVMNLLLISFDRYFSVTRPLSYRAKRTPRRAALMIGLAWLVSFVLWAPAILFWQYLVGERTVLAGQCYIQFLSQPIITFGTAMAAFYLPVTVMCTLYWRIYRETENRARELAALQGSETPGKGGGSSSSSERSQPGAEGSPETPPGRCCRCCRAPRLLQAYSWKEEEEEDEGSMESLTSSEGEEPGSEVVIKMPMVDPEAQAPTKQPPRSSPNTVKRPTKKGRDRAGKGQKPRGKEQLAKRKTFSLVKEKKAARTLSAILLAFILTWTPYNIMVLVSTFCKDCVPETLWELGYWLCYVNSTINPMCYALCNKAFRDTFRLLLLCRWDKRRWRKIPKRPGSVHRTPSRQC

[5] = biological target: Muscarinic acetylcholine Receptor M2 (CHRM2) (Homo sapiens, UniProt P08172); test: SAFETYscan CHRM2 cAMP; type: cell-based; conditions: 10 μM HU-MCA-13, read-out: Maximal Response
Sequence of Muscarinic acetylcholine Receptor M2 (CHRM2) (P08172 whole entry): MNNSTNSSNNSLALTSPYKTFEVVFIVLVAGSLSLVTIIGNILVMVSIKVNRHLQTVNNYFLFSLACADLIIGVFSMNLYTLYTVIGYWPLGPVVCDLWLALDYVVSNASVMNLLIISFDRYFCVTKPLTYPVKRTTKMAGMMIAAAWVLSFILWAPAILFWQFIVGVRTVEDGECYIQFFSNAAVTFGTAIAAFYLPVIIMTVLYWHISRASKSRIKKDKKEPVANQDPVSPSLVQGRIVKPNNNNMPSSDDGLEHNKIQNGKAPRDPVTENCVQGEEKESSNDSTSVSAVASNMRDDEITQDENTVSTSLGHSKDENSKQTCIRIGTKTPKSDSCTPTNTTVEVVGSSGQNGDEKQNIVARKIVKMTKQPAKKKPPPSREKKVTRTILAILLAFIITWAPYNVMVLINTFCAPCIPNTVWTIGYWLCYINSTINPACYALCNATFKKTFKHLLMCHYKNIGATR

[6] = biological target: 5-Hydroxytryptamine (Serotonin) Receptor 1A (HTR1A) (Homo sapiens, UniProt P08908); test: SAFETYscan HTR1A cAMP; type: cell-based; conditions: 10 μM HU-MCA-13
Sequence of 5-Hydroxytryptamine (Serotonin) Receptor 1A (HTR1A) (P08908 whole entry): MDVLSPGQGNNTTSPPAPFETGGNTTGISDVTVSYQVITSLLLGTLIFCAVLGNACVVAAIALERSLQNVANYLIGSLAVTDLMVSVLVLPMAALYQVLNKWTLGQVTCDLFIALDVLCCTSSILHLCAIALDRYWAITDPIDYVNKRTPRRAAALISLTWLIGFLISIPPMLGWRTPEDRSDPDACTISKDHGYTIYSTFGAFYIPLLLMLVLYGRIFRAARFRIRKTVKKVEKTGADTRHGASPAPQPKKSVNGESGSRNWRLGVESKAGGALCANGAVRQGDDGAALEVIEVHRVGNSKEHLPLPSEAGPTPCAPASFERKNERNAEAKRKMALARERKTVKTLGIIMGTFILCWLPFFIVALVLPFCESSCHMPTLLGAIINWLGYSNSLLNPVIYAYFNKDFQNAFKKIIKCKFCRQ

[7] = biological target: 5-Hydroxytryptamine (Serotonin) Receptor 1B (HTR1B) (Homo sapiens, UniProt P28222); test: SAFETYscan HTR1B cAMP; type: cell-based; conditions: 10 μM HU-MCA-13, read-out: Maximal Response
Sequence of 5-Hydroxytryptamine (Serotonin) Receptor 1B (HTR1B) (P28222 whole entry): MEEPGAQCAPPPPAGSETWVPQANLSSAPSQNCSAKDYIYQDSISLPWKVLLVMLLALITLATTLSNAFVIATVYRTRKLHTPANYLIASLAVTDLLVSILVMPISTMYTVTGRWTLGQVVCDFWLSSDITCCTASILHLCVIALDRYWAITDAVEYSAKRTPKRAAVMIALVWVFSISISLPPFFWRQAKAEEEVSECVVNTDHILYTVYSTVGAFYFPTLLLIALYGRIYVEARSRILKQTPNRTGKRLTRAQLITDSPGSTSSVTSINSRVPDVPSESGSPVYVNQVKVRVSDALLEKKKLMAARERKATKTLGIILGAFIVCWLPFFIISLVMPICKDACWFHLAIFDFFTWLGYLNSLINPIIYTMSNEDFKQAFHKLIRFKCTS

[8] = biological target: Opioid Receptor Mu 1 (OPRM1) (Homo sapiens, UniProt P35372); test: cell-based; conditions: 10 μM HU-MCA-13, read-out: Maximal Response
Sequence of Opioid Receptor Mu 1 (OPRM1) (P35372 whole entry): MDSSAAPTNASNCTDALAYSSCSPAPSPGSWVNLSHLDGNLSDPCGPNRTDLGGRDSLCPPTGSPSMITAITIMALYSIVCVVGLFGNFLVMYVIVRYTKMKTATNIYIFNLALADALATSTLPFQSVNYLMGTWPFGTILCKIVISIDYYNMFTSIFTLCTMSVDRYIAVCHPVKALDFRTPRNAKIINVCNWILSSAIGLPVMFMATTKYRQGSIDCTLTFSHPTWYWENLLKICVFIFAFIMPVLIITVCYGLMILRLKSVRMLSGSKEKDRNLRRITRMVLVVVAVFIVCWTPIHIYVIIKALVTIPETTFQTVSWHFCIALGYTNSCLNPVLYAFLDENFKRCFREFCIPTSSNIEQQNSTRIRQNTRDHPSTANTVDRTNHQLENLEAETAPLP

[9] = biological target: T2, Serotonin transporter (SERT) (Homo sapiens, UniProt P31645); test: cell-based; conditions: Blocker mode; 10 μM HU-MCA-13; read-out: Maximal Response
T2 construct: DiscoverX (SAFETYscan contract panel)
T2 sequence (P31645 whole entry): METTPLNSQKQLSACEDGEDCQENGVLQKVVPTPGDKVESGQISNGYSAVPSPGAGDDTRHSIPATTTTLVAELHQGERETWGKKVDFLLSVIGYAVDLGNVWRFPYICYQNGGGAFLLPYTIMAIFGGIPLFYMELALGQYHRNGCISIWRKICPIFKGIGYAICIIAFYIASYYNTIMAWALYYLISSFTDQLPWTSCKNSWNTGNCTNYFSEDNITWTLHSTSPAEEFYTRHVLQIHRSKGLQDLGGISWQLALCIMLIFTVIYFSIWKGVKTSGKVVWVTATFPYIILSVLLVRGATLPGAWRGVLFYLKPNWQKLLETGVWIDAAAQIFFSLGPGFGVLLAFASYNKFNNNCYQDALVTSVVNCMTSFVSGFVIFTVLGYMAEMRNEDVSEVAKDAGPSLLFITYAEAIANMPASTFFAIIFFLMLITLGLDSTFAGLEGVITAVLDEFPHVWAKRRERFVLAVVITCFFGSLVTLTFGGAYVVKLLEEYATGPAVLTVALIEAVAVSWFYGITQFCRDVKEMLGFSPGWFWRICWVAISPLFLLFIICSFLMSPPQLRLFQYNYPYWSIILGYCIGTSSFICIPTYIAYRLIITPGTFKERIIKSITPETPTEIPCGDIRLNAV

[10] = read-out: Maximal Response, Agonist mode

Sequence of Adrenergic Receptor α1A (ADRA1A) (P35348 whole entry): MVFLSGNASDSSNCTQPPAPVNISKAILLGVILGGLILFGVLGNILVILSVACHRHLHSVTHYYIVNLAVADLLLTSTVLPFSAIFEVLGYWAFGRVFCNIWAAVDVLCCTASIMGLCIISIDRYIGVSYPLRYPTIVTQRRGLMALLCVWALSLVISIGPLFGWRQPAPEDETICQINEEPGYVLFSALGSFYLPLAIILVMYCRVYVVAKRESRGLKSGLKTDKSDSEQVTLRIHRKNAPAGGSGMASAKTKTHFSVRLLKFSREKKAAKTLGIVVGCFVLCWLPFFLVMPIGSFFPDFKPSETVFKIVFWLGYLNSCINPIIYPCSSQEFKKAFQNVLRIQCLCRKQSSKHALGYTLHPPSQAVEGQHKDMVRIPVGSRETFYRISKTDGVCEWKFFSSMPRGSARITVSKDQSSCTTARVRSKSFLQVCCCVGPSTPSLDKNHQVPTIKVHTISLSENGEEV

In the case of `C=CCC1CCC[C@@H](CCC(=O)O)C1=C` (stereo partly drawn) [Compound 13], the Emax ([1]; Agonist mode) is reported as 1.12%, the Emax ([1]; Antagonist mode) is reported as 3.06% and the “Maximal Response” value ([2]; Agonist mode) is reported as 24.55%. It also gave an Emax ([2]; Antagonist mode, read-out: Maximal Response) of 0%, an Emax [2, 10] of 24.5% and an Emax ([3]; Agonist mode) of 1.56%. It also gave an Emax ([3]; Antagonist mode) of 0%, an Emax ([4]; Agonist mode) of 0% and an Emax ([4]; Antagonist mode) of 7.43%. For the same compound, the Emax ([5]; Agonist mode) was 11.7%, the Emax ([5]; Antagonist mode) was 0% and the Emax [6, 10] was 7.66%. The Emax ([6]; read-out: Maximal Response, Antagonist mode) was 0%, the Emax ([7]; Agonist mode) was 10.5% and the Emax ([7]; Antagonist mode) was 0%. The Emax ([8]; OPRM1, Agonist mode) was 9.31%, the Emax ([8]; OPRM1, Antagonist mode) was 0.38% and the Emax [9] was 15.4%.

Reference: US20200239398A1, “METHYLENE-CYCLOALKYLACETATE DERIVATIVES AND THEIR USE IN TREATMENT OF NEUROTROPIC CONDITIONS” (Yissum Research Development Company of The Hebrew …, priority 2018, published 2020)
